Measurements published in publication PMC8213057, “Targeting ALK2: An Open Science Approach to Developing Therapeutics for the Treatment of Diffuse Intrinsic Pontine Glioma” (Journal of Medicinal Chemistry, 2020).

Columns and labels:
[1] = molecular target: T1, ASK1/MAP3K5 (Homo sapiens, UniProt Q99683); conditions: 1 μM; Run 1, Run 2
T1 sequence (Q99683 1-1374): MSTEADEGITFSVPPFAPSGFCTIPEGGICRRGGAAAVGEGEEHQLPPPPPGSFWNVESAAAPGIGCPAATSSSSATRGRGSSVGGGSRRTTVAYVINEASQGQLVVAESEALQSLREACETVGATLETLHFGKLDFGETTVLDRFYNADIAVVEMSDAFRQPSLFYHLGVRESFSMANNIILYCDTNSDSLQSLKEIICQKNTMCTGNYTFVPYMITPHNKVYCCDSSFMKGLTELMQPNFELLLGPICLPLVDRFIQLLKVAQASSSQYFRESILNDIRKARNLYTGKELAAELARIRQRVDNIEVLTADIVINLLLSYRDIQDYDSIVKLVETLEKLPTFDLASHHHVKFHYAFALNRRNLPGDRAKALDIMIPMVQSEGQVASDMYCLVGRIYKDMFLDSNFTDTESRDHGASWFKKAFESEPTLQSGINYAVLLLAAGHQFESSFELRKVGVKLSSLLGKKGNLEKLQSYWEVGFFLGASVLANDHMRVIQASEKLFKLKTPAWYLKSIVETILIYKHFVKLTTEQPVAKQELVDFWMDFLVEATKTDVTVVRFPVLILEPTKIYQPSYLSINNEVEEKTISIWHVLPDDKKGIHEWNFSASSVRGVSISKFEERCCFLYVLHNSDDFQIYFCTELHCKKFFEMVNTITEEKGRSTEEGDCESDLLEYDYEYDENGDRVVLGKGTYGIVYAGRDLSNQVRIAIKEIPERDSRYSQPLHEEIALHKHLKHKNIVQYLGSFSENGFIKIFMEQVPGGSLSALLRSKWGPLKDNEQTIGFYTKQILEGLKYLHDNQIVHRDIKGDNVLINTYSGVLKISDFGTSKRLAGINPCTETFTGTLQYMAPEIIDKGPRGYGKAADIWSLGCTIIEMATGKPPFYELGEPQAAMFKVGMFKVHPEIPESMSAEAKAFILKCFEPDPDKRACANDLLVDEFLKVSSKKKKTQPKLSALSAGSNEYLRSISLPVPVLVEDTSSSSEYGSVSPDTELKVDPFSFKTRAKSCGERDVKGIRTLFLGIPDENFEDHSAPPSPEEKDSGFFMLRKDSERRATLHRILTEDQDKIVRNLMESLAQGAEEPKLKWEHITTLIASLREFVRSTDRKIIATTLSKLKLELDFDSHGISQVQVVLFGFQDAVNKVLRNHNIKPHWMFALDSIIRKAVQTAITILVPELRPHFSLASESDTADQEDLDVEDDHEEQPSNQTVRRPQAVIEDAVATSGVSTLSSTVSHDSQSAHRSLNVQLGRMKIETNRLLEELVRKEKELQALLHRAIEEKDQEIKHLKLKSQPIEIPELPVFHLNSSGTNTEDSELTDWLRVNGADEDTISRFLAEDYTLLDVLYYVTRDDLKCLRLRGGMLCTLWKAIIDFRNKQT

[2] = molecular target: T2, MASTL (Homo sapiens, UniProt Q96GX5); assay: biochemical; conditions: read-out: % enzyme activity, 1 μM; Run 1, Run 2
T2 sequence (Q96GX5 1-879): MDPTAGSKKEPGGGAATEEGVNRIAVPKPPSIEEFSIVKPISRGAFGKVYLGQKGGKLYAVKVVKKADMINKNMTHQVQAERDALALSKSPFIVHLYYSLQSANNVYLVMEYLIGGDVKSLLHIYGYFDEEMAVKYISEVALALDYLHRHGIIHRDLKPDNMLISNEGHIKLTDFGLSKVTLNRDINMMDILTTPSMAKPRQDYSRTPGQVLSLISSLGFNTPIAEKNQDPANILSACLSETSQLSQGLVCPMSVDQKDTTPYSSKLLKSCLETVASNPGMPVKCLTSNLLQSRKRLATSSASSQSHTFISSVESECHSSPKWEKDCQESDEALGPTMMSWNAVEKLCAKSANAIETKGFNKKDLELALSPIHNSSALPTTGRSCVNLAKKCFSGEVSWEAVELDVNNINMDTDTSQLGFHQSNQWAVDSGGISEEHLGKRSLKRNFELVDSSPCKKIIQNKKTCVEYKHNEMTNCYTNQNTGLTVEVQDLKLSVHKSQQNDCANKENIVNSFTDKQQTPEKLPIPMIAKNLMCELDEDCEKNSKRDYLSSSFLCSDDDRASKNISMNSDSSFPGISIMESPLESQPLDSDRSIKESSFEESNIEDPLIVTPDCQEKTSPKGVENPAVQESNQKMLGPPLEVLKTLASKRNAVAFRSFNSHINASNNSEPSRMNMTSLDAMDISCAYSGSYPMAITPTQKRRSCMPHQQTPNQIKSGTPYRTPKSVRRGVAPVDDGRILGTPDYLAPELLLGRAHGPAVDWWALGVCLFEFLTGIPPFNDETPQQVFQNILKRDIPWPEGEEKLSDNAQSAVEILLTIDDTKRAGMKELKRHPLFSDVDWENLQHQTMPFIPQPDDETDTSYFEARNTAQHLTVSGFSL

[3] = molecular target: PLK3 (Homo sapiens, UniProt Q9H4B4); assay: biochemical; conditions: read-out: % enzyme activity, 1 μM; Run 1, Run 2
Sequence of PLK3 (Q9H4B4 whole entry): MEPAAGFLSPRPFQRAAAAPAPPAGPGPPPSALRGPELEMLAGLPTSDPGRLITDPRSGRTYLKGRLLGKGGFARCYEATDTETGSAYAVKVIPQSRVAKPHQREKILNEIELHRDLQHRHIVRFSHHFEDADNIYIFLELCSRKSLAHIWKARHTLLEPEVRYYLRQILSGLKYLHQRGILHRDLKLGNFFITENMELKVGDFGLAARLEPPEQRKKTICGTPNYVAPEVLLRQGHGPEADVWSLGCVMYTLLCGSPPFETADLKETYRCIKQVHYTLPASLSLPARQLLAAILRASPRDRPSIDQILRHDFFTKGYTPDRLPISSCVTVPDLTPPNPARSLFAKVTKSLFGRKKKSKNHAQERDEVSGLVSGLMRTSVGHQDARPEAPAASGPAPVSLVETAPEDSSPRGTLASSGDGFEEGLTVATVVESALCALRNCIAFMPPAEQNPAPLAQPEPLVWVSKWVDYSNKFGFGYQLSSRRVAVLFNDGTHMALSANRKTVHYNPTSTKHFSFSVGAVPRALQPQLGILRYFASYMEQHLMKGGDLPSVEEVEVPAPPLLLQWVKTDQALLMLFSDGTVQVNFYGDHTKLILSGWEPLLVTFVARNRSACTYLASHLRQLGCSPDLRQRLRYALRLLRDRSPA

Compound: COc1cc(-c2cncc(-c3ccc(N4CCN(C)CC4)cc3)c2C)cc(F)c1C(N)=O [Compound 26a, 2-Fluoro-6-methoxy-4-(4-methyl-5-(4-(4-methylpiperazin-1-yl)phenyl)pyridin-3-yl)benzamide]
- % enzyme activity [1]: 94.20%
- remaining activity at 1 µM [2]: 99.3%
- remaining activity at 1 µM [3]: 95%

Compound: COc1cc(-c2cncc(-c3ccc(N4C[C@@H](C)N(C)[C@@H](C)C4)cc3)c2C)cc(F)c1C(N)=O [Compound 26c, 2-Fluoro-6-methoxy-4-(4-methyl-5-(4-((3R,5S)-3,4,5-trimethylpiperazin-1-yl)phenyl)pyridin-3-yl)benzamide]
- % enzyme activity [1]: 96.09%
- remaining activity at 1 µM [2]: 102%
- remaining activity at 1 µM [3]: 97.7%
